The source of these data is patent publication US10730886B2, “Compound having effect of inhibiting platelet aggregation and salt thereof, and composition for preventing or treating thrombotic diseases, containing same” (SHIN POONG PHARMACEUTICAL CO., LTD., priority 2015, dated 2020).

The term NOAEL denotes the highest tested level that showed no adverse finding.

The subject of one data set is human platelets. The data set can be described thus: Cytotoxicity in human platelets (LDH leakage). The format is cell-based. Particulars: 3 min. As to the method:
5-2. Evaluation of Cytotoxicity of Candidate Substances Using Human Platelets
Leakage of lactate dehydrogenase (LDH) from the platelets was measured by a spectro-photometry method. 1.2 μl of the test substance was added to 598.8 μl of PRP, and the mixture was reacted at 37° C. for 3 minutes using a thermomixer. After the reaction, 100 μl of the sample was centrifuged at 12,000 g for 2 minutes, and 80 μl of the supernatant was taken and refrigerated until evaluation. The evaluation was performed within 24 hours. […] 25 μl of the sample was added to 1 ml of a pre-warmed Tris-EDTA NADH solution (56 mM Tris(hydroxymethyl) aminomethane, 5.6 mM EDTA, 0.17 mM β-NADH pH 7.4) and reacted for 5 minutes at 37° C. Then, 100 μl of a 14 mM pyruvate solution previously heated at 37° C. was added to the reaction mixture, and absorbance was immediately measured at a wavelength of 339 nm for 1 minute using a spectrophotometer (UV-Vis spectrophotometer, UV-2201, Shidamadzu, Japan). The rate of decrease in absorbance means the rate of oxidation of NADH, indicating the activity of LDH liberated from platelets. Total activity of LDH was measured by inducing lysis of platelets with 0.3% Triton X-100. The basal level of LDH (Control) was measured in plasma. The activity of each sample was measured as a percentage of the total activity of LDH.

Data set [1] has as its system thrombin-induced platelet aggregation, Human PRP. Briefly: Thrombin-induced platelet aggregation in human PRP (lumi-aggregometer).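 Also: aggregation recorded for 5 min after thrombin addition.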 Particulars: thrombin 0.6-0.8 U/ml. In kind it is cell-based. How it is done:
To investigate whether the candidate substance has inhibition selectivity for shear-stress-induced platelet aggregation, which is by a physical stimulus, […] experiment was conducted by activating platelets with physiological agonists—i.e., thrombin, collagen and ADP—to study the inhibitory effect of the candidate substance.
Human PRP (598.8 μl) was treated with 1.2 μl of the candidate substance per concentration (25, 100, 250 μM) and reacted at 37° C. for 3 minutes using a thermomixer. Then, PRP (495 μl) was put in the aggregometer cuvette and preincubated for 1 minute, followed by treatment with platelet aggregation-inducing reagent, thrombin (0.6-0.8 U/ml), collagen (2-5 μg/ml), or ADP (adenosine diphosphate, 15-20 μM) at the minimum concentration causing maximum aggregation. The degree of aggregation of the platelets was measured by a turbidity change using a lumi-aggregometer (Chrono-Log Co., USA). The turbidity of the PRP was considered as 0%, and the turbidity of the PPP was considered as 100%. During the measurement, the reaction mixture was continuously stirred at 1,000 rpm with a silicone-coated magnetic stir bar.

The next data set concerns plasma. Briefly: Plasma coagulation time, Prothrombin Time (PT). The format is biochemical. Particulars: plasma treated 3 minutes. How it is done:
In order to separate plasma, blood was collected with 3.2% sodium citrate as an anticoagulant. Whole blood was centrifuged at 2000 g for 20 minutes to obtain plasma. After treating the plasma with the test substances for 3 minutes, plasma coagulation time was measured. For plasma coagulation time, Activated Partial Thromboplastin Time (aPTT) and Prothrombin Time (PT) were measured using BBL® Fibrometer (Becton Dickinson, Cockeysville, Md.). For measurement of aPTT, the plasma was treated with aPTT reagents in fibrometer cup and reacted at 37° C. for 3 min. After the reaction, CaCl2 was added and blood coagulation time was measured immediately. For the measurement of PT, PT reagent was added to warmed plasma, and blood coagulation time was measured immediately. DTI, known to prolong plasma coagulation time, was used as a control.

Data set [2] deals with iron chloride (FeCl3)-induced thrombogenesis model. The data set can be described thus: Arterial thrombosis model, FeCl3-induced carotid artery thrombogenesis. The format is in vivo, Sprague-Dawley rats. Particulars: rat, 25 mg/kg oral; for Time of thrombogenesis: FeCl3 applied 60 min after administration, occlusion time; for Fold (vs. Control): time of thrombogenesis vs. vehicle control. As to the method: Vehicle (DMSO: Tween 80: DW=1:2:17) or candidate substance (25 mg/kg) was orally administered to overnight-fasted male Sprague-Dawley rats (250 to 300 g). 30 minutes after administration, the rats were anesthetized by intraperitoneal injection of urethane (1.25 g/kg). The anesthetized animals were restrained on the operating table, and the body temperature was maintained using a heating pad during the entire operating procedure. An incision was made around the neck of the animals to carefully expose the right carotid artery, and the adipose tissues attached to the blood vessels were carefully removed. Doppler flow probe (0.5 mm-diameter, MA0.5PSB, Transonic System Inc., USA) was fixed to the exposed carotid artery, and a doppler flow-meter (TS420, Transonic System Inc., USA) was connected thereto. 60 minutes after oral administration, a piece of Whatman No. 1 filter paper (2 mm×1 mm) soaked with 50% FeCl3 solution was attached to the underlying blood vessels to which the probe was fixed. The filter paper was removed after 10 minutes, and the change of blood flow due to thrombus formation in the carotid artery was measured for 60 minutes after the time point of removal. The occlusion time was defined as the time at which the blood flow became zero more than one minute for the first time.

Data set [3] concerns human liver cells (HepG2). The data set can be described thus: Cytotoxicity in human liver cells HepG2 (WST-1). In kind it is cell-based. Particulars: HepG2, 250 μM, 18 hours. How it is done:
5-3. Evaluation of Cytotoxicity of Candidate Substances Using Human Liver Cells
Experiments were conducted to evaluate cytotoxicity in human liver cells (HepG2). HepG2 cells, which are human liver carcinoma cell lines, were cultured in DMEM (Dulbecco's minimum essential medium) supplemented with 10% FBS (fetal bovine serum) and 1% Penicillin/Streptomycin at 37° C. and 5% CO2. The cells were cultured in a 48 well plate at 4×10^4 cells/well for 24 hours and then used in the experiments. The HepG2 cells were treated with the candidate substances (250 μM) for 18 hours, and then the medium was removed and WST-1 was added, followed by shading for 3 hours for reaction. After 3 hours, the supernatant was taken and absorbance was measured at 450 nm. Cell viability was calculated by comparing the absorbance measured after adding WST-1 to HepG2 cells not treated with the candidate substances. Acetaminophen (40 mM) was used as a control.
For orientation: Tetrazolium dyes change colour on reduction, which living cells bring about.

For another data set, the system named is ICR mice. The data set can be described thus: 2-week repeat-dose toxicity study. In kind it is in vivo. Particulars: oral 100, 300 and 1000 mg/kg once a day for 2 weeks. As to the method:
(§1) After oral administration of vehicle (0.5% methylcellulose) or the candidate substances at low dose, medium dose, and high dose (100, 300, 1000 mg/kg) to ICR mice (female, male, 18 to 26 g) once a day for 2 weeks, the NOAEL values of the candidate substances were calculated by observing and recording mortality, body weight change, clinical observations, food and drinking water consumption, gross necropsy findings, histopathological evaluation of abnormal organ, and organ weights.

Data set [4] can be described thus: 2-week repeat-dose toxicity study. In kind it is in vivo. Particulars: both sexes, mouse, in vivo; ICR mice, oral 100, 300, 1000 mg/kg once a day for 2 weeks; read-out: NOAEL (No observed adverse effect level). As to the method: as §1

Take `O=C(c1ccc(O)c(O)c1)N1CCc2sccc2C1` [Example 1, (6,7-Dihydrothieno[3,2-c]pyridin-5(4H)-yl)(3,4-dihydroxyphenyl)methanone]: the “LDH leakage (%, Mean ± SEM)” value with human platelets (25 μM) turned out to be 2.7 ± 0.5%; in the data set on human platelets (100 μM) it was 2.4 ± 0.2%; with human platelets (250 μM) it was 2.7 ± 0.5%. In addition, the “Degree of platelet aggregation (%, Mean ± SEM)” value (from here on “Degree … (%, Mean ± SEM)”) in data set [1] (25 μM) was 88.0 ± 2.1%; in data set [1] (100 μM), 88.7 ± 6.1%; in data set [1] (250 μM), 78.7 ± 1.8%. The “plasma coagulation time - PT, Time” value in the data set with plasma (25 μM) worked out at 10.8 ± 0.5 s; in the data set with plasma (100 μM), 10.7 ± 0.8 s; in the data set with plasma (250 μM), 11.0 ± 0.1 s. Further, the “Time of thrombogenesis” value in data set [2] is 936 ± 120 s. For the same compound, the “Cell vaibility (%)” value in data set [3] worked out at 91.7 ± 2.0%.
As to `COc1cc(C(=O)N2CCc3sccc3C2)ccc1O` [Example 12, (6,7-Dihydrothieno[3,2-c]pyridin-5(4H)-yl)(4-hydroxy-3-methoxyphenyl)methanone], the “LDH leakage (%, Mean ± SEM)” value in the data set with human platelets (25 μM) is 2.3 ± 0.5%; with human platelets (100 μM) it was 3.6 ± 0.1%; with human platelets (250 μM) it was 3.6 ± 0.8%. Besides, the “Degree … (%, Mean ± SEM)” value in data set [1] (25 μM) amounted to 99.5 ± 7.5%; in data set [1] (100 μM) it was 95.0 ± 12.0%; in data set [1] (250 μM), 88.5 ± 4.5%. The “plasma coagulation time - PT, Time” value is 10.9 ± 0.1 s with plasma (25 μM), 11.0 ± 0.5 s in the data set with plasma (100 μM) and 10.5 ± 0.3 s with plasma (250 μM). In addition, the “Time of thrombogenesis” value in data set [2] was found to be 665 ± 77 s. In data set [2], the “Fold (vs. Control)” value is 1.9. Further, the “Cell vaibility (%)” value in data set [3] is given as 89.0 ± 2.3%.
Consider `CCc1occc(=O)c1OC(=O)c1ccc(O)c(OC)c1` [Example 13, 2-Ethyl-4-oxo-4H-pyran-3-yl 4-hydroxy-3-methoxybenzoate], for which the “LDH leakage (%, Mean ± SEM)” value is recorded as 2.2 ± 0.4% in the data set on human platelets (25 μM), 4.0 ± 1.2% in the data set on human platelets (100 μM) and 4.0 ± 0.3% in the data set on human platelets (250 μM). For the same compound, the “findings in body weight change, clinical observations, food and drinking water consumption, gross necropsy findings, and organ weights” value in the data set with ICR mice is “no abnormal findings were observed”. For the same compound, the mortality entry in the data set on ICR mice is listed as “no dead animals were observed”. For the same compound, in data set [4], the NOAEL at 2 weeks was above 1000 mg/kg. In addition, the figures for the “Degree … (%, Mean ± SEM)” value in data set [1] (25 μM), in data set [1] (100 μM) and in data set [1] (250 μM) were 92.5 ± 5.5%, 95.0 ± 12.0% and 88.5 ± 4.5%, respectively. The “plasma coagulation time - PT, Time” value in the data set with plasma (25 μM) turned out to be 11.0 ± 0.3 s; in the data set with plasma (100 μM), 10.6 ± 0.2 s; in the data set with plasma (250 μM), 10.8 ± 0.3 s. Also, the “Time of thrombogenesis” value in data set [2] came to 752 ± 69 s. In addition, the “Fold (vs. Control)” value in data set [2] was determined as 2.1. Moreover, the “Cell vaibility (%)” value in data set [3] was 98.3 ± 5.5%.
Turning to `COc1ccc(NC(=O)c2ccc(O)c(OC)c2)c([N+](=O)[O-])c1` [Example 15, 4-Hydroxy-3-methoxy-N-(4-methoxy-2-nitrophenyl)benzamide], the “LDH leakage (%, Mean ± SEM)” value in the data set with human platelets (25 μM) was determined as 2.7 ± 0.1%; in the data set with human platelets (100 μM) it was 3.2 ± 0.4%; in the data set with human platelets (250 μM) it was 3.1 ± 1.3%. Further, the “Degree … (%, Mean ± SEM)” value in data set [1] (25 μM) is on record as 95.5 ± 3.5%; in data set [1] (100 μM), 100.5 ± 4.5%; in data set [1] (250 μM), 98.0 ± 3.0%. For the same compound, the results for the “plasma coagulation time - PT, Time” value in the data set on plasma (25 μM), in the data set on plasma (100 μM) and in the data set with plasma (250 μM) were 10.7 ± 0.0 s, 10.6 ± 0.2 s and 10.9 ± 0.1 s, respectively. Besides, the “Time of thrombogenesis” value in data set [2] was found to be 816 ± 78 s. Moreover, in data set [2], the “Fold (vs. Control)” value is reported as 2.3. In addition, the “Cell vaibility (%)” value in data set [3] is reported as 89.7 ± 2.3%.
Regarding `O=C(c1cc(O)ccc1O)N1CCc2sccc2C1` [Example 20, (6,7-Dihydrothieno[3,2-c]pyridin-5(4H)-yl)(2,5-dihydroxyphenyl)methanone], the “LDH leakage (%, Mean ± SEM)” value with human platelets (25 μM) is recorded as 4.1 ± 0.7%; in the data set with human platelets (100 μM) it was 5.2 ± 0.4%; with human platelets (250 μM), 3.5 ± 1.2%. The “Degree … (%, Mean ± SEM)” value in data set [1] (25 μM) was determined as 84.0 ± 3.2%; in data set [1] (100 μM), 82.3 ± 3.7%; in data set [1] (250 μM) it was 82.0 ± 15.0%. Further, the results for the “plasma coagulation time - PT, Time” value with plasma (25 μM), in the data set on plasma (100 μM) and with plasma (250 μM) were 10.8 ± 0.4 s, 10.2 ± 0.4 s and 11.2 ± 0.4 s, respectively. Further, in data set [2], the “Time of thrombogenesis” value turned out to be 2122 ± 265 s. Also, the “Cell vaibility (%)” value in data set [3] is given as 87.7 ± 2.6%.
`O=C(c1cc(O)ccc1O)N1CCC(c2noc3ccc(F)cc23)CC1` [Example 23, (2,5-Dihydroxyphenyl)(4-(5-fluorobenzo[d]isoxazol-3-yl)piperidin-1-yl)methanone]: the results for the “LDH leakage (%, Mean ± SEM)” value in the data set on human platelets (25 μM), in the data set on human platelets (100 μM) and in the data set with human platelets (250 μM) were 1.8 ± 0.1%, 2.2 ± 1.3% and 3.2 ± 0.5%, respectively. Moreover, the “Degree … (%, Mean ± SEM)” value is recorded as 96.0 ± 4.0% in data set [1] (25 μM), 88.5 ± 6.5% in data set [1] (100 μM) and 93.5 ± 1.5% in data set [1] (250 μM). Moreover, the “plasma coagulation time - PT, Time” value came out at 10.3 ± 0.1 s with plasma (25 μM), 10.7 ± 0.2 s with plasma (100 μM) and 10.8 ± 0.3 s with plasma (250 μM). The “Time of thrombogenesis” value in data set [2] turned out to be 674 ± 92 s. In data set [2], the “Fold (vs. Control)” value worked out at 1.9. Further, in data set [3], the “Cell vaibility (%)” value is listed as 82.7 ± 5.5%.
